The assay has as its system status epilepticus (SE) induced by lithium-pilocarpine (LP). Kind of assay: Status epilepticus induced by lithium-pilocarpine in rats receiving TFS, alone and combined with subeffective doses of diazepam. The assay is classed as in vivo. The source says: This study was designed to evaluate status epilepticus (SE) induced by lithium-pilocarpine (LP) in rats receiving TFS, alone and combined with subeffective doses of diazepam, an antiepileptic drug that belongs to the group of benzodiazepines. Diazepam is currently considered one of the drugs of choice to stop SE.

[1] abbreviates: LP+TFS+DZP group compared with LP, LP+DZP and LP+TFS groups, p<0.001.

Structures are written as SMILES.

For the compound `CN1C(=O)CN=C(c2ccccc2)c2cc(Cl)ccc21` [diazepam], under setting [1], the “latency to mild generalized seizure” value is reported as “significantly increased”, the “latency to the establishment of the SE” value is given as “significantly increased” and the “latency to the first forelimb clonus” value is reported as “significantly increased”. Also, where the note is “subeffective dose of diazepam combined with TFS (LP+TFS+DZP group), p<0.0001 vs LP, p<0.003 vs LP+DZP”, the “total protection against LP-induced seizures and SE, animals” value was 62%. Besides, the “latency and incidence of LP-induced behavioral alterations” value (subeffective doses of diazepam administered prior to the pilocarpine, without TFS, in comparison to the LP group) was “Non-significant changes”. The “rats presenting seizures and SE” value (subeffective doses of diazepam prior to pilocarpine, without TFS (LP+DZP group)) was “All rats presented seizures and SE”.

The values are drawn from patent US9399133B2, “Non-invasive automated electrical control systems and methods for monitoring animal conditions” (Rhode Island Board of Education, State of Rhode Island and …, priority 2012, dated 2016).
